21 compounds from ChEMBL document CHEMBL3867445, “Halogenated Sesquiterpenoids from the Red Alga Laurencia tristicha Collected in Taiwan” (J Nat Prod, 2016) can be followed below.

Broadly, the IC50 is the midpoint of a concentration-inhibition curve. A low value points to greater potency in that assay. In general, inhibition refers to the change of the read-out against control, counted positive when it falls.

The nature of assay [1]: Cytotoxicity against human A549 cells by Alamar Blue assay.
Assay [2] is described as follows: Cytotoxicity against human LNCAP cells by Alamar Blue assay. Type of assay: functional, cell-based. (The colour change of resazurin is a common sign of viable cells or microbes.)
Assay [3] can be described thus: Antiinflammatory activity in human neutrophils assessed as inhibition of fMLP/CB-induced elastase release at 10 uM using MeO-Suc-Ala-Ala-Pro-Val-p-nitroanilide as elastase substrate preincubated for 5 mins followed by fMLP/CB-induction. The class given is functional. To be noted: Neutrophil.
A short description of assay [4]: Cytotoxicity against human DLD1 cells by Alamar Blue assay. The class given is functional, cell-based. Conditions: DLD-1.
For the next assay, the system named is Yersinia enterocolitica. In words: Antibacterial activity against Yersinia enterocolitica ATCC 23715 assessed as zone of inhibition at 100 ug/disk measured after 24 hrs by agar disk-diffusion method. The class given is functional. Conditions: ATCC 23715, 24 h, read-out: IZ. (In general: A growth-free zone around the sample is the usual read-out of agar diffusion tests.)

The nature of assay [5]: Antiinflammatory activity in human neutrophils assessed as inhibition of fMLP/CB-induced superoxide anion generation by measuring superoxide dismutase-inhibitable reduction of ferricytochrome c at 20 uM preincubated for 5 mins followed by fMLP/CB-induction measured after 10 mins. To be noted: Neutrophil. Type of assay: functional.
Another assay deals with Klebsiella aerogenes. As to the kind of experiment: Antibacterial activity against Enterobacter aerogenes ATCC 13048 assessed as zone of inhibition at 100 ug/disk measured after 24 hrs by agar disk-diffusion method. The class given is functional. Conditions: ATCC 13048, 24 h, read-out: IZ.
A short description of assay [6]: Antiinflammatory activity in human neutrophils assessed as inhibition of fMLP/CB-induced elastase release at 20 uM using MeO-Suc-Ala-Ala-Pro-Val-p-nitroanilide as elastase substrate preincubated for 5 mins followed by fMLP/CB-induction. The class given is functional. To be noted: Neutrophil.
Assay [7] is described as follows: Antiinflammatory activity in human neutrophils assessed as inhibition of fMLP/CB-induced superoxide anion generation by measuring superoxide dismutase-inhibitable reduction of ferricytochrome c at 10 uM preincubated for 5 mins followed by fMLP/CB-induction measured after 10 mins. The class given is functional. To be noted: Neutrophil.
A further assay concerns Serratia marcescens. In words: Antibacterial activity against Serratia marcescens ATCC 25419 assessed as zone of inhibition at 100 ug/disk measured after 24 hrs by agar disk-diffusion method. Type of assay: functional. Conditions: ATCC 25419, 24 h, read-out: IZ.

Bounds are passed on as bounds.

Consider `C=C1C[C@@H](O)[C@@H](Br)C(C)(C)[C@]12CC[C@](C)(Br)[C@@H](Cl)C2`, for which the IC50 in assay [1], in assay [2] and in assay [4] was at least 10 µM each time. For the same compound, the results for the inhibition at 10 µM in assay [3] and in assay [7] were 44% and 25%, respectively. Besides, the zone of inhibition at 100 µg/disc in the assay on Yersinia enterocolitica, in the assay on Klebsiella aerogenes and with Serratia marcescens was 2 mm each time. Moreover, the inhibition at 20 µM amounted to 48% in [5] and 60% in assay [6].
For the compound `CO[C@@]1(C)CC[C@]2(C[C@H]1Br)C(C)=C[C@H](O)CC2(C)C`, the IC50 in assay [1], in assay [2] and in assay [4] was at least 10 µM throughout. Moreover, the inhibition at 10 µM in assay [3] turned out to be 5%; in assay [7], 12%. Further, the inhibition at 20 µM worked out at 10% in assay [5] and 24% in [6].
In the case of `C=C1C[C@@H](O)[C@@H](Br)C(C)(C)[C@@]12C=CC(=O)CC2`, the IC50 in [1], in assay [2] and in [4] was at least 10 µM throughout. The inhibition at 10 µM was 9% in assay [3] and 7% in [7]. Besides, the inhibition at 20 µM turned out to be 13% in [5] and 14% in assay [6]. In the assay on Klebsiella aerogenes, the zone of inhibition at 100 µg/disc was found to be 3 mm.
For the compound `C=C1C[C@@H](O)[C@@H](Br)C(C)(C)[C@@]12C=C[C@@](O)(C(Br)Br)CC2` [MAILIOHYDRIN], the IC50 in assay [1], in assay [2] and in [4] was at least 10 µM in each case. In addition, the inhibition at 10 µM in [3] was 16%; in assay [7], 13%. The zone of inhibition at 100 µg/disc was found to be 2 mm in the assay on Yersinia enterocolitica, 1 mm in the assay on Klebsiella aerogenes and 2 mm in the assay on Serratia marcescens. Besides, the inhibition at 20 µM is 16% in [5] and 22% in [6].
For `CC1(C)S[C@@H]2[C@H](NC(=O)[C@H](N)c3ccccc3)C(=O)N2[C@H]1C(=O)O` [AMPICILLIN], the zone of inhibition at 100 µg/disc is 8 mm in the assay on Yersinia enterocolitica, 11 mm in the assay with Klebsiella aerogenes and 5 mm in the assay with Serratia marcescens.
As for `CC1=CC(=O)CC(C)(C)[C@@]12C=CC(=O)CC2`, the 50% inhibitory concentration (IC50) in assay [1], in [2] and in [4] was at least 10 µM in each case. For the same compound, the values for the inhibition at 10 µM in [3] and in [7] were 18% and 4%, respectively. For the same compound, the inhibition at 20 µM in assay [5] was 16%; in assay [6], 32%.
`CC1(C)[C@H](Br)[C@H](O)C[C@@]2(CO2)[C@@]12CCC(=O)[C@@H]1O[C@@H]12`: the IC50 in [1], in [2] and in [4] was at least 10 µM each time. The inhibition at 10 µM in [3] turned out to be 2%; in assay [7], 9%. Also, the inhibition at 20 µM in assay [5] came out at 8%; in assay [6], 18%.
With `C=C1C[C@H](O)[C@@H](Br)C(C)(C)[C@@]12C=C[C@](C)(O)CC2` [ISORIGIDOL], the 50% inhibitory concentration (IC50) in [1], in [2] and in [4] was at least 10 µM in each case. The inhibition at 10 µM was 9% in assay [3] and 11% in assay [7]. Besides, the inhibition at 20 µM came out at 23% in assay [5] and 12% in assay [6].
In the case of `Cc1ccc([C@]2(C)C[C@H](O)[C@@H](Br)C2(C)C)cc1`, the IC50 in assay [1], in [2] and in assay [4] was at least 10 µM throughout. In addition, the inhibition at 10 µM is 7% in assay [3] and 17% in assay [7]. In addition, the values for the inhibition at 20 µM in assay [5] and in assay [6] were 26% and 28%, respectively.
In the case of `CC1=CC(=O)CC(C)(C)[C@@]12C=C/C(=C/Br)CC2`, the IC50 in assay [1], in assay [2] and in [4] was at least 10 µM each time. Further, the values for the inhibition at 10 µM in assay [3] and in [7] were 5% and 7%, respectively. In addition, the inhibition at 20 µM in assay [5] worked out at 10%; in assay [6], 30%.
On to `CC1=CC(=O)CC(C)(C)[C@@]12C=C/C(=C\Br)CC2`, for which the 50% inhibitory concentration (IC50) in assay [1], in [2] and in [4] was at least 10 µM in each case. Further, the inhibition at 10 µM amounted to 3% in assay [3] and 6% in assay [7]. In addition, the values for the inhibition at 20 µM in [5] and in [6] were 12% and 14%, respectively. Also, in the assay with Serratia marcescens, the zone of inhibition at 100 µg/disc amounted to 8 mm.
For `C=C1CC[C@]2(C[C@@H]1O)C(=C)C[C@H](O)[C@@H](Br)C2(C)C`, the IC50 in [1], in assay [2] and in assay [4] was at least 10 µM in each case. The figures for the inhibition at 10 µM in [3] and in [7] were 5% and 10%, respectively. Also, the inhibition at 20 µM in assay [5] is 14%; in assay [6], 24%.
For the compound `C=C1C[C@@H](O)[C@@H](Br)C(C)(C)[C@@]12C=C[C@](O)(C(Br)Br)CC2`, the concentration for half-maximal inhibition (IC50) in [1], in [2] and in [4] was at least 10 µM throughout. Moreover, the inhibition at 10 µM amounted to 9% in [3] and 19% in assay [7]. Further, the zone of inhibition at 100 µg/disc turned out to be 4 mm with Yersinia enterocolitica and 2 mm with Serratia marcescens. Further, the inhibition at 20 µM in [5] is 32%; in assay [6] it was 33%.
With `CC1=C[C@H](O)[C@@H](Br)C(C)(C)[C@@]12C=C[C@](C)(O)CC2`, the IC50 in assay [1], in [2] and in [4] was at least 10 µM in each case. For the same compound, the inhibition at 10 µM came out at 1% in [3] and 13% in assay [7]. Moreover, the inhibition at 20 µM in assay [5] and in [6] was 12% throughout.
On to `C=C1C[C@@H](O)[C@@H](Br)C(C)(C)[C@]12CCC(=O)[C@H]1O[C@H]12`, for which the IC50 in assay [1], in assay [2] and in assay [4] was at least 10 µM throughout. The inhibition at 10 µM in assay [3] worked out at 3%; in assay [7], 6%. Also, the inhibition at 20 µM in [5] turned out to be 6%; in assay [6], 14%.
As to `CC1=C[C@H](O)CC(C)(C)[C@]12CC[C@](C)(Br)[C@H](Cl)C2`, the IC50 in [1], in [2] and in assay [4] was at least 10 µM in each case. In addition, the inhibition at 10 µM in assay [3] and in [7] was 12% each time. Also, the figures for the inhibition at 20 µM in [5] and in [6] were 14% and 19%, respectively.
`C=C1C[C@@H](O)[C@@H](Br)C(C)(C)[C@@]12C=C/C(=C\Br)CC2`: the IC50 in assay [1], in assay [2] and in assay [4] was at least 10 µM in each case. Moreover, the inhibition at 10 µM in assay [3] is 8%; in assay [7], 24%. For the same compound, the results for the zone of inhibition at 100 µg/disc with Yersinia enterocolitica and with Serratia marcescens were 3 mm and 4 mm, respectively. Moreover, the inhibition at 20 µM worked out at 10% in [5] and 12% in [6].
Turning to `CC[C@H](Nc1ncnc2[nH]cnc12)c1nc2cccc(F)c2c(=O)n1-c1ccccc1` [IDELALISIB], the inhibition at 10 µM in assay [3] amounted to 100%; in assay [7] it was 103%.
Take `COc1cccc2c1C(=O)c1c(O)c3c(c(O)c1C2=O)C[C@@](O)(C(=O)CO)C[C@@H]3O[C@H]1C[C@H](N)[C@H](O)[C@H](C)O1` [DOXORUBICIN]: the IC50 is 1.4 µM in assay [2] and 2.6 µM in assay [4].
`C=C1C[C@@H](O)[C@@H](Br)C(C)(C)[C@@]12C=C/C(=C/Br)CC2`: the IC50 in [1], in assay [2] and in assay [4] was at least 10 µM each time. In addition, the inhibition at 10 µM in [3] stood at 34%; in assay [7], 18%. The inhibition at 20 µM worked out at 10% in assay [5] and 69% in assay [6].
As for `C=C1C[C@@H](O)[C@@H](Br)C(C)(C)[C@@]12C=C[C@](O)(CO)CC2`, the IC50 in [1], in assay [2] and in assay [4] was at least 10 µM each time. The inhibition at 10 µM was found to be 9% in assay [3] and 7% in assay [7]. Moreover, the inhibition at 20 µM in assay [5] is 14%; in assay [6] it was 29%.
